Structures are written as SMILES.

Holding throughout (format): functional
In assay [1] the test system is INS1. In words: Insulinotropic activity in Rattus norvegicus (rat) INS-1 cells assessed as increase of glucose-induced insulin release at 0.001 mg/ml after 90 min by radioimmunoassay relative to 5.6 mM of glucose.
In assay [2] the test system is INS1. In words: Insulinotropic activity in Rattus norvegicus (rat) INS-1 cells assessed as increase of glucose-induced insulin release at 0.01 mg/ml after 90 min by radioimmunoassay relative to 5.6 mM of glucose.
Assay [3] has as its system INS1. In words: Insulinotropic activity in Rattus norvegicus (rat) INS-1 cells assessed as increase of glucose-induced insulin release at 3 mM after 90 min by radioimmunoassay relative to 5.6 mM of glucose.

For `CCOC(=O)CN1C(=O)S/C(=C/c2coc3ccccc3c2=O)C1=O`, the figures for the Activity in assay [1] and in assay [2] were 83.15% and 65.53%, respectively.
The corresponding values for `O=C1NC(=O)/C(=C\c2coc3ccc([N+](=O)[O-])cc3c2=O)S1` are 81.44% and 69.2%.
The corresponding values for `Cc1ccc2occ(/C=C3/SC(=O)NC3=O)c(=O)c2c1` are 90.53% and 75.61%.
The corresponding values for `Cc1cc(C)c2occ(/C=C3/SC(=O)NC3=O)c(=O)c2c1` are 85.89% and 84.64%.
Consider `CC(C)c1ccc2occ(/C=C3/SC(=O)NC3=O)c(=O)c2c1`, for which the figures for the Activity in assay [1] and in assay [2] were 89.46% and 81.55%, respectively.
Take `O=C(O)CN1C(=O)S/C(=C/c2coc3ccc([N+](=O)[O-])cc3c2=O)C1=O`: the Activity in assay [1] is recorded as 107.8%; in assay [2], 111%.
Consider `Cc1ccc2occ(/C=C3/SC(=O)N(CC(=O)O)C3=O)c(=O)c2c1`, for which the Activity in assay [1] was found to be 102.2%; in assay [2] it was 120.7%.
Regarding `CCOC(=O)CN1C(=O)S/C(=C/c2coc3c(C)cc(C)cc3c2=O)C1=O`, the values for the Activity in assay [1] and in assay [2] were 138% and 154.4%, respectively.
Consider `CC(C)c1ccc2occ(/C=C3/SC(=O)N(CC(=O)O)C3=O)c(=O)c2c1`, for which the Activity came to 125.6% in assay [1] and 144.3% in assay [2].
For `O=C1NC(=O)/C(=C\c2coc3ccccc3c2=O)S1`, the Activity in assay [1] is 83.98%; in assay [2], 63.57%.
The corresponding values for `CCOC(=O)CN1C(=O)S/C(=C/c2coc3ccc(C(C)C)cc3c2=O)C1=O` are 138.5% and 180.5%.
The corresponding values for `CCOC(=O)CN1C(=O)S/C(=C/c2coc3ccc([N+](=O)[O-])cc3c2=O)C1=O` are 98.8% and 74.1%.
The corresponding values for `O=C(O)CN1C(=O)S/C(=C/c2coc3ccccc3c2=O)C1=O` are 117.2% and 121%.
`CCOC(=O)CN1C(=O)S/C(=C/c2coc3ccc(C)cc3c2=O)C1=O`: the Activity in assay [1] is recorded as 153.1%; in assay [2] it was 177.7%.
The corresponding values for `Cc1cc(C)c2occ(/C=C3/SC(=O)N(CC(=O)O)C3=O)c(=O)c2c1` are 102.8% and 131.6%.
Turning to `OC[C@H]1OC(O)[C@H](O)[C@@H](O)[C@@H]1O` (some centres not stated) [DEXTROSE], the Activity in assay [3] was determined as 73%.
`COc1ccc(Cl)cc1C(=O)NCCc1ccc(S(=O)(=O)NC(=O)NC2CCCCC2)cc1` [GLYBURIDE]: the Activity in assay [1] was 179.6%.

The values are drawn from ChEMBL document CHEMBL3046503, “Insulinotropic activity of chromonyl-2,4-thiazolidinediones” (2009).
